Assay results reported in patent publication US6197225A, “Chromene compound” (Tokuyama Corporation, priority 1997, dated 2001).
Blank lines part the entries; values can stand above or below the molecule they belong to.

Columns and labels:
[1] = prior-art compound, placed in a dark place after color development; cited from earlier work
[2] = Photochromic properties of cast polymer (2 mm thick) under xenon lamp irradiation for 120 seconds; type: physicochemical
Protocol: 0.04% by weight of the chromene compound obtained in Example 1 was added to 70 parts of 4G, 15 parts of 3G, 10 parts of GMA, 5 parts of HEMA and 1 part of perbutyl ND, and was mixed together to a sufficient degree. The mixture solution was poured into a mold constituted by a glass plate and a gasket of an ethylene/vinyl acetate copolymer, and was cast-polymerized. By using an air furnace, the polymerization was conducted in a manner that the temperature was gradually raised from 30° C. to 90° C. over a period of 18 hours, and was held at 90° C. for 2 hours. After the polymerization, the polymer was taken out from the glass mold.
By using a xenon lamp, L-2480 (300 W) SHL-100, manufactured by Hamamatsu Photonics Co., the obtained polymer (2 mm thick) was irradiated with a beam of an intensity of 365 nm=2.4 mW/cm^2 and 245 nm=24 μW/cm^2 on the surface of the polymer for 120 seconds through an aero-mass filter (manufactured by Corning Co.) at 20° C.±1° C. to develop color and to measure the photochromic properties which were expressed in the following manner.
1 Maximum absorption wavelength (λmax): λmax of the polymer after it has developed color was found by using a spectrophotometer (instantaneous multi-channel photo-detector, MCPD1000) manufactured by Otsuka Denshi Kogyo Co.
2 Initial color ( ε(0)): Absorbency of the polymer in a non-irradiated state at a wavelength same as the maximum absorption wavelength of when it is irradiated with light.
3 Color density (-)=ε(120)-ε(0). ε(120): Absorbency of the polymer at a maximum absorption wavelength after it was irradiated for 120 seconds under the above-mentioned conditions.
4 Color-developing sensitivity (-/min.)=Saturated color density/xenon irradiation time.
Rate of increase in the color density per a unit time until the color density is saturated.
5 Color fading rate [t1/2 (min.)]=time required until the absorbency of the polymer drops down to one-half of [ε(120)-ε(0)] after irradiated for 120 seconds.
(§1) Photochromic polymers were prepared in the same manner as in Example 42 but using the chromene compounds obtained in Examples 2 to 41, and their maximum absorption wavelengths, color densities, fading rates, changes in the coloring degrees and durabilitys were measured.
(§2) For the purpose of comparison, furthermore, the compounds represented by the following formulas (a), (b), (c), (d), (e) and (f) were measured for their maximum absorption wavelengths, color densities, fading rates, changes in the coloring degrees and durabilitys.
(§3) The procedure was carried out in the same manner as in Example 42 but using 100 parts of AC1 and 133 parts of BC1, the sum of the amounts of AC1 and BC1 being 0.04% by weight. The obtained photochromic polymer was measured for its maximum absorption wavelength, initial color, color density, color-developing sensitivity, fading rate, durability and change in the coloring degree.
(§4) The procedure was carried out in the same manner as in Example 83 but using the known chromene compounds shown in Table 6 instead of the chromene compound used in Example 83. […]

[3] = Aging promotion testing: sunlight 30 min / fading one hour cycles, 10 days (durability, coloring degree); type: physicochemical
Protocol: In order to promote the aging, furthermore, the following testing was conducted. That is, the obtained photochromic polymer was irradiated with sunlight for 30 minutes to develop color, and its color was permitted to fade for one hour in the light of a fluorescent lamp. This cycle was repeated three times a day for a total of 10 days.
The photochromic properties before and after aged were evaluated by evaluating the color densities before and after aged. The initial color density (T0) and the color density (T30) ten days after the aging promotion testing were measured, and the durability was expressed as described below.
Furthermore, the coloring degrees of before developing color were measured before and after aged by using a color difference meter (SM-4) manufactured by Suga Shikenki Co.
7 Coloring degree before being aged=YI(0).
8 Change in the coloring degree (ΔYI)=YI(10)-YI(0)
YI(10): coloring degree after aged
as §1, §2, §3, §4
The obtained polymer (2 mm thick) was caused to develop color outdoors, and tones of the developed color were observed by eyes 30 seconds and 15 minutes after it was brought to the outdoors, and uniformity in the step of developing color was evaluated. […] Furthermore, the aging promoting testing was conducted in the same manner as in Example 42 to find a coloring degree (YI(0)) before aged and a change in the coloring degree (ΔY).

[4] = single chromene compound 0.04% by weight in polymer, 20° C., Table 5
[5] = chromene composition, or other chromene C1-C4, 10 days aging, Table 6

SMILES: C1=CC2(CC3CCC2C3)Oc2c1ccc1ccccc21 (centres unmarked) [(A)]
fading rate (in words) [1]: slow fading rate

SMILES: Cc1cc2ccccc2c2c1C=CC(c1ccccc1)(c1ccccc1)O2 [(C)]
fading rate (in words) [1]: a fading rate nearly the same as that of the above-mentioned compound (A)

Maximum absorption wavelength λmax [2, 4]: 500 nm
Color density ε(120)-ε(0) ([2]; single chromene compound 0.04% by weight in polymer, 120 seconds, 20° C., Table 5): 0.8
Change in the coloring degree ΔYI ([3]; YI(10)-YI(0), single chromene compound in polymer, 10 days aging, Table 5): 1.5
Light resistance (durability) ([3]; single chromene compound in polymer, 10 days aging, Table 5): 97%
SMILES: COc1ccc(C2(c3ccc(OC)cc3)C=Cc3c(C(C)C)cc4ccccc4c3O2)cc1 [Compound 13]
Fading rate t1/2 [2, 4]: 3.3 min

λ max ([2]; chromene composition, or other chromene C1-C4, 0.04% by weight in polymer, Table 6): 480 nm
Color density ε(120)-ε(0) ([2]; chromene composition, or other chromene C1-C4, 120 seconds, Table 6): 1.0
Initial color ε(0) ([2]; chromene composition, or other chromene C1-C4, non-irradiated, Table 6): 0.01
Change in the coloring degree ΔYI [3, 5]: 5.0
Durability [3, 5]: 95%
SMILES: Cc1c2c(c3ccccc3c1C)OC(c1ccccc1)(c1ccccc1)C=C2 [Compound C3, 5,6-Dimethyl-2,2-diphenyl-2H-benzo(h)chromene, reference compound]
Fading rate t1/2 ([2]; chromene composition, or other chromene C1-C4, Table 6): 10 min
Color-developing sensitivity ([2]; saturated color density/xenon irradiation time, Table 6): 0.2 -/min.
